Measurements reported in patent US9169254B2, “Spiroimidazolone derivative” (Chugai Seiyaku Kabushiki Kaisha, priority 2009, dated 2015).

Each compound was assayed against T1, human PTH1 receptor (Homo sapiens, UniProt Q03431) (assay: In vitro cAMP signal activity in HKRK-B7 cells (LLC-PK1 cells overexpressing the human PTH1 receptor)). Settings: 0.1 µM.
T1 sequence (Q03431 27-593): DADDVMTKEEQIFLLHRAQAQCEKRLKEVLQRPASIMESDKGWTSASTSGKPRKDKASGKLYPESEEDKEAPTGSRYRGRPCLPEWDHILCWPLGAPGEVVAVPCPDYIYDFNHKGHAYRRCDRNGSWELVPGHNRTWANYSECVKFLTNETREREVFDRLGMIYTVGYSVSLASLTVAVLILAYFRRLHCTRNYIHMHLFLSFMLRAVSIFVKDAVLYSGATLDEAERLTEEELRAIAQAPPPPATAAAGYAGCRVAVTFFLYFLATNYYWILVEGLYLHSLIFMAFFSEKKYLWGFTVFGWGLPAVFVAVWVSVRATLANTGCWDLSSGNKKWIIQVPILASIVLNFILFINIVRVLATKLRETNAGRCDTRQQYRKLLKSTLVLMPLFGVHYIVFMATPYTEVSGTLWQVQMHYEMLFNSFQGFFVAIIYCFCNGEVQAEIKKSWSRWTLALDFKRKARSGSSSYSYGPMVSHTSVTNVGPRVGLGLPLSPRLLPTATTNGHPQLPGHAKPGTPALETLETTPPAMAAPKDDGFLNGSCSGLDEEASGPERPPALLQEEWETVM
Type: cell-based

| SMILES | cAMP production activity (%) |
| --- | --- |
| Cc1cc(N(C)C(N)=O)cc(C)c1CCS(=O)(=O)N1CCC2(CC1)N=C(c1cccc(C(F)(F)C(F)(F)C(F)(F)C(F)(F)F)c1)NC2=O [Compound 1341, 1-(3,5-dimethyl-4-{2-[2-(3-nonafluorobutyl-phenyl)-4-oxo-1,3,8-triaza-spiro[4.5]dec-1-ene-8-sulfonyl]-ethyl}-phenyl)-1-methyl-urea] | 83% |

Same assay, conditions: HKRK-B7 cells; compound at 1×10^−3 M; cAMP produced as percentage of that produced by hPTH(1-34) at 100 nM

| cAMP production activity (%) | SMILES |
| --- | --- |
| 63% | Cc1cc(S(=O)(=O)NC(CO)(CO)CO)ccc1/C=C/S(=O)(=O)N1CCC2(CC1)N=C(c1cccc(C(F)(F)F)c1)NC2=O [Compound 595, N-(2-hydroxy-1,1-bis-hydroxymethyl-ethyl)-3-methyl-4-{(E)-2-[4-oxo-2-(3-trifluoromethyl-phenyl)-1,3,8-triaza-spiro[4.5]dec-1-ene-8-sulfonyl]-vinyl}-benzenesulfonamide] |
| 76% | Cc1cc(S(=O)(=O)NCC(F)(F)F)ccc1CCS(=O)(=O)N1CCC2(CC1)N=C(c1cccc(C(F)(F)F)c1)NC2=O [Compound 290, 3-methyl-4-{2-[4-oxo-2-(3-trifluoromethyl-phenyl)-1,3,8-triaza-spiro[4.5]dec-1-ene-8-sulfonyl]-ethyl}-N-(2,2,2-trifluoro-ethyl)-benzenesulfonamide] |
| 39% | Cc1cc(N(C2CCOCC2)S(C)(=O)=O)cc(C)c1/C=C/S(=O)(=O)N1CCC2(CC1)N=C(c1cccc(OC(F)(F)F)c1)NC2=O [Compound 534, N-(3,5-dimethyl-4-{(E)-2-[4-oxo-2-(3-trifluoromethoxy-phenyl)-1,3,8-triaza-spiro[4.5]dec-1-ene-8-sulfonyl]-vinyl}-phenyl)-N-(tetrahydro-pyran-4-yl)-methane sulfonamide] |
| 89% | Cc1cc(C(=O)N2CCC(C)(O)CC2)cc(C)c1/C=C/S(=O)(=O)N1CCC2(CC1)N=C(c1ccc(F)c(OCCCC(F)(F)C(F)(F)F)c1)NC2=O [Compound 1092, 2-[4-Fluoro-3-(4,4,5,5,5-pentafluoro-pentyloxy)-phenyl]-8-{(E)-2-[4-(4-hydroxy-4-methyl-piperidine-1-carbonyl)-2,6-dimethyl-phenyl]-ethenesulfonyl}-1,3,8-triaza-spiro[4.5]dec-1-en-4-one] |
| 72% | Cc1cc(C(=O)N(C)C)ccc1CCS(=O)(=O)N1CCC2(CC1)N=C(COc1ccc(Cl)cc1Cl)NC2=O [Compound 131, 4-{2-[2-(2,4-dichloro-phenoxymethyl)-4-oxo-1,3,8-triaza-spiro[4.5]dec-1-ene-8-sulfonyl]-ethyl}-3,N,N-trimethyl-benzamide] |
| 78% | Cc1cc(N(C)C(N)=O)cc(C)c1CCS(=O)(=O)N1CCC2(CC1)N=C(CCCCCCCCC(F)F)NC2=O [Compound 1323, 1-(4-{2-[2-(9,9-Difluoro-nonyl)-4-oxo-1,3,8-triaza-spiro[4.5]dec-1-ene-8-sulfonyl]-ethyl}-3,5-dimethyl-phenyl)-1-methyl-urea] |
| 86% | Cc1cc(C(=O)N2CCC(C)(O)CC2)cc(C)c1/C=C/S(=O)(=O)N1CCC2(CC1)N=C(C1CCC(CCC(F)(F)F)CC1)NC2=O (stereo not drawn) [Compound 989, 8-{(E)-2-[4-(4-Hydroxy-4-methyl-piperidine-1-carbonyl)-2,6-dimethyl-phenyl]-ethenesulfonyl}-2-[4-(3,3,3-trifluoro-propyl)-cyclohexyl]-1,3,8-triaza-spiro[4.5]dec-1-en-4-one] |
| 24% | CN1CCN(C(=O)NCc2ccc(/C=C/S(=O)(=O)N3CCC4(CC3)N=C(C3CCCCC3)NC4=O)cc2)CC1 [Compound 567, 4-methyl-piperazine-1-carboxylic acid 4-[(E)-2-(2-cyclohexyl-4-oxo-1,3,8-triaza-spiro[4.5]dec-1-ene-8-sulfonyl)-vinyl]-benzylamide] |
| 72% | Cc1ccc(NCCO)cc1CCS(=O)(=O)N1CCC2(CC1)N=C(C1CCCCC1)NC2=O [Compound 275, 2-cyclohexyl-8-{2-[5-(2-hydroxy-ethylamino)-2-methyl-phenyl]-ethanesulfonyl}-1,3,8-triaza-spiro[4.5]dec-1-en-4-one] |
| 79% | Cc1cc(N(CCF)C(N)=O)cc(C)c1CCS(=O)(=O)N1CCC2(CC1)N=C(C1CCC(CCC(F)(F)F)CC1)NC2=O (stereo not drawn) [Compound 818, 1-[3,5-dimethyl-4-(2-{4-oxo-2-[4-(3,3,3-trifluoro-propyl)-cyclohexyl]-1,3,8-triaza-spiro[4.5]dec-1-ene-8-sulfonyl}-ethyl)-phenyl]-1-(2-fluoro-ethyl)-urea] |
| 74% | CC(=O)Nc1ccc(CCS(=O)(=O)N2CCC3(CC2)N=C(C2CCC(CC(C)F)CC2)NC3=O)c(C)c1 (stereo not drawn) [Compound 1077, N-[4-(2-{2-[4-(2-fluoro-propyl)-cyclohexyl]-4-oxo-1,3,8-triaza-spiro[4.5]dec-1-ene-8-sulfonyl}-ethyl)-3-methyl-phenyl]-acetamide] |
| 74% | Cc1cc(C(=O)N(C)C)ccc1CCS(=O)(=O)N1CCC2(CC1)N=C(COc1ccc(F)c(F)c1F)NC2=O [Compound 176, 3,N,N-trimethyl-4-{2-[4-oxo-2-(2,3,4-trifluoro-phenoxymethyl)-1,3,8-triaza-spiro[4.5]dec-1-ene-8-sulfonyl]-ethyl}-benzamide] |
| 55% | CC(=O)NNC(=O)c1cc(C)c(CCS(=O)(=O)N2CCC3(CC2)N=C(C2CCC(CCC(F)(F)F)CC2)NC3=O)c(C)c1 (stereo not drawn) [Compound 769, 3,5-dimethyl-4-(2-{4-oxo-2-[4-(3,3,3-trifluoro-propyl)-cyclohexyl]-1,3,8-triaza-spiro[4.5]dec-1-ene-8-sulfonyl}-ethyl)-benzoic acid N′-acetyl-hydrazide] |
| 81% | Cc1cc(C(=O)N2CCC(F)(F)CC2)ccc1CCS(=O)(=O)N1CCC2(CC1)N=C(c1cccc(C(F)(F)F)c1)NC2=O [Compound 365, 8-{2-[4-(4,4-difluoro-piperidine-1-carbonyl)-2-methyl-phenyl]-ethanesulfonyl}-2-(3-trifluoromethyl-phenyl)-1,3,8-triaza-spiro[4.5]dec-1-en-4-one] |
| 35% | O=C1NC(C2CCCCC2)=NC12CCN(S(=O)(=O)C#Cc1cccc3[nH]ccc13)CC2 [Compound 1377, 2-Cyclohexyl-8-[2-(1H-indol-4-yl)-ethynesulfonyl]-1,3,8-triaza-spiro[4.5]dec-1-en-4-one] |
| 66% | COc1ccc(-c2ccccc2CCS(=O)(=O)N2CCC3(CC2)N=C(C2CCCCC2)NC3=O)cn1 [Compound 339, 2-cyclohexyl-8-{2-[2-(6-methoxy-pyridin-3-yl)-phenyl]-ethanesulfonyl}-1,3,8-triaza-spiro[4.5]dec-1-en-4-one] |
| 45% | CCC1CCC(C2=NC3(CCN(S(=O)(=O)CCc4c(C)cc(N(C)C(N)=O)cc4C)CC3)C(=O)N2)CC1 (stereo not drawn) [Compound 732, 1-(4-{2-[2-(4-Ethyl-cyclohexyl)-4-oxo-1,3,8-triaza-spiro[4.5]dec-1-ene-8-sulfonyl]-ethyl}-3,5-dimethyl-phenyl)-1-methyl-urea] |
| 68% | Cc1cc(S(=O)(=O)NCC(N)=O)ccc1CCS(=O)(=O)N1CCC2(CC1)N=C(c1cccc(OC(F)(F)F)c1)NC2=O [Compound 675, 2-(3-Methyl-4-{2-[4-oxo-2-(3-trifluoromethoxy-phenyl)-1,3,8-triaza-spiro[4.5]dec-1-ene-8-sulfonyl]-ethyl}-benzenesulfonylamino)-acetamide] |
| 3.7% | O=C1NC(C2CCCCC2)=NC12CCCN(S(=O)(=O)c1cccc(Cl)c1)C2 (stereo not drawn) [Compound 71, 7-(3-chloro-benzenesulfonyl)-2-cyclohexyl-1,3,7-triaza-spiro[4.5]dec-1-en-4-one] |
| 5.5% | O=C(NCc1ccccc1)c1cccc(C2=NC3(CCN(S(=O)(=O)c4cccc(Cl)c4)CC3)C(=O)N2)c1 [Compound 350, N-benzyl-3-[8-(3-chloro-benzenesulfonyl)-4-oxo-1,3,8-triaza-spiro[4.5]dec-1-en-2-yl]-benzamide] |
| 48% | Cc1cc(N2C(=O)CNC2=O)ccc1CCS(=O)(=O)N1CCC2(CC1)N=C(C1CCC(C)CC1)NC2=O (stereo not drawn) [Compound 881, 3-(3-methyl-4-{2-[2-(4-methyl-cyclohexyl)-4-oxo-1,3,8-triaza-spiro[4.5]dec-1-ene-8-sulfonyl]-ethyl}-phenyl)-imidazolidine-2,4-dione] |
| 40% | O=C(c1c[nH]c2cccc(CCS(=O)(=O)N3CCC4(CC3)N=C(C3CCCCC3)NC4=O)c12)C(F)(F)F [Compound 649, 2-cyclohexyl-8-{2-[3-(2,2,2-trifluoro-acetyl)-1H-indol-4-yl]-ethanesulfonyl}-1,3,8-triaza-spiro[4.5]dec-1-en-4-one] |

| SMILES | cAMP production activity (%) |
| --- | --- |
| [2H]C([2H])([2H])C([2H])([2H])C([2H])([2H])C([2H])([2H])Oc1cc(C2=NC3(CCN(S(=O)(=O)/C=C/c4c(C)cc(C(=O)N5CCC(C)(O)CC5)cc4C)CC3)C(=O)N2)cc(C(F)(F)F)c1 [Compound 1233, 2-(3-[1,1,2,2,3,3,4,4,4-^2H9]butoxy-5-trifluoromethyl-phenyl)-8-{(E)-2-[4-(4-hydroxy-4-methyl-piperidine-1-carbonyl)-2,6-dimethyl-phenyl]-ethenesulfonyl}-1,3,8-triaza-spiro[4.5]dec-1-en-4-one] | 78% |
